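Tested at 5 concentrations; 48 h exposure; 96-well plates; endpoints linearly interpolated, else capped at highest concentration. TGI is the concentration that stops growth completely.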
Key:
Test in all cases: NCI-60 cell line screen, 48 h
[1] = system: COLO 205 colon
[2] = system: LOX IMVI melanoma
[3] = system: MDA-MB-231 breast
[4] = system: SK-OV-3 ovarian
[5] = system: RPMI-8226 leukemia
[6] = system: 786-0 renal
[7] = system: HT29 colon
[8] = system: MCF7 breast
[9] = system: SW-620 colon
[10] = system: EKVX NSCLC
[11] = system: MOLT-4 leukemia
[12] = system: KM12 colon
[13] = system: M14 melanoma
[14] = system: CAKI-1 renal
[15] = system: SF-295 CNS
[16] = system: CCRF-CEM leukemia
[17] = system: PC-3 prostate
[18] = system: UACC-257 melanoma
[19] = system: SK-MEL-28 melanoma
[20] = system: MDA-N
[21] = system: OVCAR-8 ovarian
[22] = system: SN12C renal
[23] = system: UACC-62 melanoma
[24] = system: MALME-3M melanoma
[25] = system: T-47D breast
[26] = system: SR leukemia
[27] = system: HL-60(TB) leukemia
[28] = system: NCI-H23 lung
[29] = system: DU-145 prostate
[30] = system: A549 NSCLC
[31] = system: K-562 leukemia
[32] = system: SK-MEL-5 melanoma
[33] = system: HCT-15 colon
[34] = system: RXF 393 renal
[35] = system: IGROV1 ovarian
[36] = system: HCC-2998 colon
[37] = system: HOP-62 NSCLC
[38] = system: SNB-75 CNS
[39] = system: TK-10 renal
[40] = system: OVCAR-5 ovarian
[41] = system: U251 CNS
[42] = system: SNB-19 CNS
[43] = system: OVCAR-4 ovarian
[44] = system: A498 renal
[45] = system: SF-268 CNS
[46] = system: MDA-MB-435
[47] = system: HCT-116 colon
[48] = system: HS 578T breast
[49] = system: UO-31 renal
[50] = system: ACHN renal
[51] = system: SK-MEL-2 melanoma
[52] = system: SF-539 CNS
[53] = system: OVCAR-3 ovarian
[54] = system: NCI/ADR-RES ovarian
[55] = system: NCI-H226 lung

CC(=O)OCC12CCC3C4(C)CCCC(C)(C)C4CCC3(C)C1CC(C1=CC(=O)OC1O)O2 (centres undefined)
TGI [1]: 4.18 µM
TGI [2]: 2.54 µM
TGI [3]: 4.44 µM
TGI [4]: 6.32 µM
TGI [5]: > 10 µM
TGI [6]: 2.28 µM
TGI [7]: 3.58 µM
TGI [8]: > 10 µM
TGI [9]: 6.47 µM
TGI [10]: 5.92 µM
TGI [11]: 0.797 µM
TGI [12]: 3.54 µM
TGI [13]: 2.96 µM
TGI [14]: 2.81 µM
TGI [15]: 5.56 µM
TGI [16]: > 10 µM
TGI [17]: 2.63 µM
TGI [18]: 3.63 µM
TGI [19]: 3.44 µM
TGI [20]: 2.89 µM
TGI [21]: 3.91 µM
TGI [22]: 3.09 µM
TGI [23]: 4.82 µM
TGI [24]: 2.44 µM
TGI [25]: > 10 µM
TGI [26]: 0.846 µM
TGI [27]: 2.76 µM
TGI [28]: 3.86 µM
TGI [29]: 6.64 µM
TGI [30]: > 10 µM
TGI [31]: 4.72 µM
TGI [32]: 3.44 µM
TGI [33]: 2.5 µM
TGI [34]: 3.82 µM
TGI [35]: 3.6 µM
TGI [36]: 3.67 µM
TGI [37]: 6.45 µM
TGI [38]: 3.32 µM
TGI [39]: 3.31 µM

CC(=O)Oc1cc(OC(C)=O)c2c(C)cc(=O)oc2c1
TGI [1]: > 100 µM
TGI [2]: > 100 µM
TGI [3]: > 100 µM
TGI [4]: > 100 µM
TGI [40]: > 100 µM
TGI [5]: > 100 µM
TGI [6]: > 100 µM
TGI [41]: > 100 µM
TGI [7]: > 100 µM
TGI [8]: > 100 µM
TGI [9]: > 100 µM
TGI [42]: > 100 µM
TGI [10]: > 100 µM
TGI [11]: > 100 µM
TGI [12]: > 100 µM
TGI [43]: > 100 µM
TGI [44]: > 100 µM
TGI [13]: > 100 µM
TGI [15]: > 100 µM
TGI [16]: > 100 µM
TGI [45]: > 100 µM
TGI [17]: > 100 µM
TGI [46]: > 100 µM
TGI [18]: > 100 µM
TGI [19]: > 100 µM
TGI [47]: > 100 µM
TGI [48]: > 100 µM
TGI [49]: > 100 µM
TGI [20]: > 100 µM
TGI [21]: > 100 µM
TGI [22]: > 100 µM
TGI [50]: > 100 µM
TGI [23]: > 100 µM
TGI [24]: > 100 µM
TGI [51]: > 100 µM
TGI [26]: > 100 µM
TGI [52]: > 100 µM
TGI [53]: > 100 µM
TGI [28]: > 100 µM
TGI [29]: > 100 µM
TGI [30]: > 100 µM
TGI [31]: > 100 µM
TGI [32]: > 100 µM
TGI [33]: > 100 µM
TGI [35]: > 100 µM
TGI [54]: > 100 µM
TGI [37]: > 100 µM
TGI [38]: > 100 µM
TGI [39]: > 100 µM
TGI [55]: > 100 µM

From PubChem BioAssay (NCI)
